{"source": "patent US12617760B2", "about": "“[(5-phenyl-1-heteroaryl-1H-triazol-3-yl)oxy] acetic acid derivatives as safeners for the protection of useful plants and crop plants” (BAYER AKTIENGESELLSCHAFT, priority 2020, dated 2026)", "tested_on": "summer barley (HORVS)", "test": "Reduction of damage by mesosulfuron-methyl on summer barley (safener greenhouse test, post-emergence)", "format": "in vivo, summer barley (HORVS; cv. Montoya)", "design": "key: 0: no reduction in damage (appearance corresponding to the herbicide control); 1: slight reduction in damage; 2: distinct reduction in damage; 3: significant reduction in damage; 4: complete reduction in damage (appearance corresponding to the untreated control)", "conditions": "safener dose 500 g/ha, sprayed at BBCH10-12, followed by mesosulfuron-methyl 40-60 g/ha, visual assessment 9-13 days after application, 2 repeats", "procedure": "2.1 Relative Action of Selected Compounds of the Invention Using the Example of Reduction of Damage by Mesosulfuron-Methyl on Summer Barley (HORVS) The seeds of the crop plants to be treated are laid out in sandy loam in plastic pots (diameter ˜4 cm), covered with soil and grown in a greenhouse under good conditions for germination and growth. The trial plants were treated at the early leaf stage (BBCH10-BBCH12). In the course of this, the inventive compounds of the general formula (I) formulated in the form of wettable powders (WP) were sprayed onto the above-ground parts of the plants as an aqueous suspension with a water application rate corresponding to 800 l/ha with addition of wetting agent (e.g. 0.2% Genapol-LRO or 0.2% Mero) in the specified dose. This was followed by the application of the herbicide. For this purpose, mesosulfuron-methyl, formulated in the form of water-dispersible granules (WG), was sprayed onto the above-ground parts of the plants in the form of an aqueous dispersion with a water application rate corresponding to 800 l/ha with addition of wetting agent (e.g. 0.2% Genapol-LRO or 1 l/ha Biopower) in a dose of 40-60 g/ha. […] 9-13 days after application, the efficacy of the test compounds was assessed visually. […]"}
{"compound": "COC(=O)COc1nc(-c2ccc(F)cc2F)n(-c2ccc(F)cn2)n1", "note": "[I.40-11, Methyl {[5-(2,4-difluorophenyl)-1-(5-fluoropyridin-2-yl)-1H-1,2,4-triazol-3-yl]oxy}acetate]", "values": [{"measurement": "Efficacy of the safener (efficacy code)", "result": 2}]}
